The record followed here is ChEMBL document CHEMBL4420073, “Small molecule inhibitors of MUC1 and methods of identifying the same” (2015).

Calls of active or inactive are those of the source. No cut-off for these calls is given here.

For experiment [1], the target named is Mucin-1 (Homo sapiens) (UniProt P15941). The experiment is described as follows: Inhibition of soluble unbound MUC1-CD dimerization (unknown origin) by immunoblot analysis. The following applies: concentration not given here. (In general: In western blotting, separated proteins are transferred to a membrane and probed.)
Sequence of Mucin-1 (Homo sapiens) (P15941 24-1097 limits assumed): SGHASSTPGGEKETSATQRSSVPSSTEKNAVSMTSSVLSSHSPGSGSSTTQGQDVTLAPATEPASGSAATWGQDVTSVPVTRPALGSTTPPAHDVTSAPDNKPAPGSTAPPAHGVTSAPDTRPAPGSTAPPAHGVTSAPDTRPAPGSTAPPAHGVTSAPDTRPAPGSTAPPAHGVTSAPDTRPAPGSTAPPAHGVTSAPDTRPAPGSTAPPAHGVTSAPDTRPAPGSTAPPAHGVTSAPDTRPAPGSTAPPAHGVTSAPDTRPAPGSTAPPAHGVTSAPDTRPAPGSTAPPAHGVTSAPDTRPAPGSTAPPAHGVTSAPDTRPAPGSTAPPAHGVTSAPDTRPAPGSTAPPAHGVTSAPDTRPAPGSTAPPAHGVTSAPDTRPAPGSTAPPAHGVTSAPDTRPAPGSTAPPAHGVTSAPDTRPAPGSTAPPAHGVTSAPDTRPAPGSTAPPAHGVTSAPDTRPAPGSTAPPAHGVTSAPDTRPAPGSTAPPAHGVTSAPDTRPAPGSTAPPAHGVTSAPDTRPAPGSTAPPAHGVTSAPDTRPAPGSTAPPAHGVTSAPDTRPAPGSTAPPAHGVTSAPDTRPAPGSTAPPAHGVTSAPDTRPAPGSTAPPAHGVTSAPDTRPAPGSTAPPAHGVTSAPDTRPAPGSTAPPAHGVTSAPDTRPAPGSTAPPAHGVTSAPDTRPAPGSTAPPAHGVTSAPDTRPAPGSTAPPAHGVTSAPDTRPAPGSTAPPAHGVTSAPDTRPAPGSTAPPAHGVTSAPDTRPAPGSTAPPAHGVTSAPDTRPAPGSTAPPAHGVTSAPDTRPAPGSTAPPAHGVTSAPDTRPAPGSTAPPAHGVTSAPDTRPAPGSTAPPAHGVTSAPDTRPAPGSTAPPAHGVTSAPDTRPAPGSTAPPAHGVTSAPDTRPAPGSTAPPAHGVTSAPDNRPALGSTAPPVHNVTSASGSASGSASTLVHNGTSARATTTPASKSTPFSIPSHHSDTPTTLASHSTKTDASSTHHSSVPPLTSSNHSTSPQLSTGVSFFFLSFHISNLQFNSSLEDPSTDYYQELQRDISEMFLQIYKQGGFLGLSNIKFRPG
Sequence of Mucin-1 (Homo sapiens) (P15941 1098-1255 limits assumed): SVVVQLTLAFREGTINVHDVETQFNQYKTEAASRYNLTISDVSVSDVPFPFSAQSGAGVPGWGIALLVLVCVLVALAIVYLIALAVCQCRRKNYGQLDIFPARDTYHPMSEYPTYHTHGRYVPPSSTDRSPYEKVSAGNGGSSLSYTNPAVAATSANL
Experiment [2] shares this target. Put plainly: Inhibition of MUC1-CD dimerization (unknown origin) expressed in HEK293 cells assessed as disruption of interaction between Flag-MUC1-CD and GFP-MUC1-CD by coimmunoprecipitation assay. It counts as cell-based.
Experiment [3] shares this target. Put plainly: Inhibition of MUC1-CD dimerization in human MCF10A cells assessed as reduction in MUC1-C levels at 50 to 100 uM incubated for 3 days by immunoblot analysis. The class given is cell-based.
Experiment [4] concerns MCF-10A. Put plainly: Growth inhibition of immortalized human MCF10A cells assessed as reduction in cell number up to 100 uM incubated for 3 days by MTS assay. The class given is functional, cell-based. (In general: Tetrazolium dyes change colour on reduction, which living cells bring about.)
In experiment [5] the test system is MCF-10A. Put plainly: Induction of apoptosis in immortalized human MCF10A cells assessed as caspase-9 cleavage at 75 uM incubated for 3 days by immunoblot analysis. The class given is functional, cell-based.
Experiment [6] relates to MCF-10A. The experiment is described as follows: Induction of cell membrane integrity loss in immortalized human MCF10A cells at 75 uM incubated for 3 days by propidium iodide staining based flow cytometry. It counts as functional.
The test system of experiment [7] is MCF7. The experiment is described as follows: Reduction of MUC1 mRNA levels in human MCF7 cells at 75 uM incubated for 3 days by qRT-PCR analysis. The class given is functional, cell-based. On the technique in general: Quantitative PCR measures a nucleic acid by following its amplification.
Experiment [8] deals with Mucin-1 (Homo sapiens) (UniProt P15941). The experiment is described as follows: Inhibition of MUC1 nuclear import in human MCF7 cells assessed as decrease in nuclear MUC1-C levels at 75 uM incubated for 3 days by immunoblot analysis. The class given is cell-based.
For experiment [9] the target is unchanged. The experiment is described as follows: Inhibition of MUC1 in human MCF7 cells assessed as decrease in MUC1 protein level in whole cell lysates at 75 uM incubated for 3 days by immunoblot analysis. The class given is subcellular. Particulars: Lysate.
For experiment [10], the system named is MCF7. The experiment is described as follows: Growth inhibition in human MCF7 cells assessed as reduction in cell number at 75 uM incubated for 3 days in presence of MUC1 siRNA by MTS assay. It counts as functional, cell-based.
In experiment [11] the test system is MCF7. The experiment is described as follows: Induction of apoptosis in human MCF7 cells assessed as caspase-9 cleavage at 75 uM incubated for 3 days by immunoblot analysis. It counts as functional, cell-based.
The test system of experiment [12] is MCF7. The experiment is described as follows: Induction of cell membrane integrity loss in human MCF7 cells assessed as PI uptake level at 75 uM incubated for 3 days by propidium iodide staining based flow cytometry (reference value: 22%). It counts as functional.
Experiment [13] relates to MCF-10A. The experiment is described as follows: Induction of cell membrane integrity loss in immortalized human MCF10A cells assessed as PI uptake level at 50 uM incubated for 3 days by propidium iodide staining based flow cytometry (reference value: 23%). It counts as functional.
The test system of experiment [14] is MCF-10A. The experiment is described as follows: Induction of cell membrane integrity loss in immortalized human MCF10A cells assessed as PI uptake level at 75 uM incubated for 3 days by propidium iodide staining based flow cytometry (reference value: 23%). It counts as functional.
In experiment [15] the test system is MCF-10A. Put plainly: Induction of cell membrane integrity loss in immortalized human MCF10A cells assessed as PI uptake level at 100 uM incubated for 3 days by propidium iodide staining based flow cytometry (reference value: 23%). The class given is functional.
Experiment [16] has as its system MCF7. Put plainly: Inhibition of colony formation in human MCF7 cells assessed as decrease in colonies at 25 uM incubated for 2 weeks by crystal violet staining based assay. The class given is functional, cell-based.
Experiment [17] deals with MCF7. Put plainly: Inhibition of colony formation in human MCF7 cells assessed as decrease in colonies at 50 to 75 uM incubated for 2 weeks by crystal violet staining based assay. The class given is functional.
Experiment [18] concerns the target Mucin-1 (Homo sapiens) (UniProt P15941). Put plainly: Inhibition of MUC1 in human BT474 cells assessed as reduction in MUC1-C expression at 25 to 75 uM incubated for 3 days by immunoblot analysis. It counts as cell-based.
Experiment [19] concerns BT-474. Put plainly: Growth inhibition of human BT474 cells assessed as reduction in cell number up to 150 uM incubated for 3 days by MTS assay. The class given is functional, cell-based.
Another experiment relates to HCC1937. Put plainly: Growth inhibition of human HCC1937 cells assessed as reduction in cell number up to 150 uM incubated for 3 days by MTS assay. The class given is functional, cell-based.
For experiment [20], the system named is BT-474. The experiment is described as follows: Inhibition of colony formation in human BT474 cells assessed as decrease in colonies at 25 to 75 uM incubated for 2 weeks by crystal violet staining based assay. The class given is functional, cell-based.

A word on the inhibition: it is the percentage by which the read-out fell short of the control.

`O=c1cc(-c2ccc(O)cc2)oc2cc(O)cc(O)c12` [APIGENIN] showed an inhibition against Mucin-1 (Homo sapiens) [1] of 100%. The inhibition result on Mucin-1 (Homo sapiens) [2], at Mucin-1 (Homo sapiens) [3], at Mucin-1 (Homo sapiens) [8], at Mucin-1 (Homo sapiens) [9], in the experiment with MCF7 [16] and at Mucin-1 (Homo sapiens) [18] was “Active” each time. Moreover, in the experiment on BT-474 [20], the inhibition result was “Active”. Besides, the “growth inhibition (GI)” value in the experiment with MCF-10A [4] and in the experiment with BT-474 [19] was “Active” throughout. The outcome in the experiment on MCF-10A [5], in the experiment with MCF-10A [6], in the experiment on MCF7 [7] and with MCF7 [11] was Active. Also, the “growth inhibition (GI)” value with MCF7 [10] and with HCC1937 was “inactive” each time. Also, the Activity in the experiment with MCF7 [12] amounted to 64%; in the experiment on MCF-10A [13], 81%; in the experiment on MCF-10A [14], 98%; in the experiment with MCF-10A [15] it was 96%. The “inhibition (INH)” value with MCF7 [17] was 100%.
